Assay results taken from ChEMBL document CHEMBL5346958 (J Med Chem, 2023).
Residue numbers refer to the chain shown, from its start. Each block holds one compound with its values, some of them ahead of it.

Experiments:
[1] = species on record: Homo sapiens; experiment: Selectivity ratio of IC50 for AKR1C2 (unknown origin) to IC50 for AKR1C3 (unknown origin)
[2] = molecular target: T1, Aldo-keto reductase family 1 member C1 (Homo sapiens, UniProt Q04828); experiment: Inhibition of recombinant AKR1C1 (unknown origin) dehydrogenase activity by measuring NADH formation by spectrophotometry
T1 sequence (Q04828 whole entry): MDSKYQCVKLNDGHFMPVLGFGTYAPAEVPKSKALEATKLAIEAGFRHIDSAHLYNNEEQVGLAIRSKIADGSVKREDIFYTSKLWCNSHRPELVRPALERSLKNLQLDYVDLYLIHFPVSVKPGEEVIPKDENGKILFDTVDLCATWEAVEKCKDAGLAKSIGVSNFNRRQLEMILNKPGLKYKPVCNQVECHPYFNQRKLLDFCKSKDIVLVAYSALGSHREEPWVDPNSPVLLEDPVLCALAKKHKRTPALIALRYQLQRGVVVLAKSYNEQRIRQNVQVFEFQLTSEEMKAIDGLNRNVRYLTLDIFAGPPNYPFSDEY

[3] = Stability of compound in SIF assessed as compound remaining after 2 hrs; format: ADME; conditions: simulated gi fluid
[4] = Metabolic stability in mouse plasma assessed as formation of (E)-3-(3-(11,2,4)triazolo(1,5-alpyridin-6-y1)-5-((4-methylbenzy1)-carbamoyl)phenyl)acrylic acid; format: ADME, cell-free
[5] = Stability of compound in SGF assessed as compound remaining after 1 hrs; format: ADME; conditions: simulated gi fluid
[6] = Tmax in BALB/c mouse at 10 mg/kg, po measured upto 24 hrs; format: ADME, organism-based; conditions: in vivo
[7] = Prodrug conversion in human liver microsomes assessed as formation of (E)-3-(3-(11,2,4)triazolo(1,5-alpyridin-6-y1)-5-((4-methylbenzy1)-carbamoyl)phenyl)acrylic acid over 60 mins; format: ADME, Microsome; conditions: 1 h
[8] = Stability on mouse plasma assessed as compound remaining measured at 30 mins; format: ADME, cell-free; conditions: 0.5 h
[9] = Tmax in BALB/c mouse assessed as (E)-3-(3-(11,2,4)triazolo(1,5-alpyridin-6-y1)-5-((4-methylbenzy1)-carbamoyl)phenyl)acrylic acid at 10 mg/kg, po measured upto 24 hrs; format: ADME, organism-based; conditions: in vivo
[10] = Toxicity in NSG mouse xenografted with human 22Rv1 cells assessed as body weight loss at 25 to 50 mg/kg, ip treated for 26 days; format: organism-based, CWR22R; conditions: in vivo, 624 h, dose 25-50 mg/kg, time 26 day
[11] = Cmax in BALB/c mouse at 10 mg/kg, po measured upto 24 hrs; format: ADME, organism-based; design: dose 10 mg/kg, time < 24 hrs, route po; conditions: in vivo
[12] = tested on: CWR22R; experiment: Antitumor activity against human 22Rv1 cells xenografted in NSG mouse tumor model assessed as reduction in tumor volume at 25 mg/kg, ip treated for 26 days relative to control; format: functional; conditions: 22Rv1, 624 h, time 26 day
[13] = Half life in BALB/c mouse assessed as (E)-3-(3-(11,2,4)triazolo(1,5-alpyridin-6-y1)-5-((4-methylbenzy1)-carbamoyl)phenyl)acrylic acid at 10 mg/kg, po measured upto 24 hrs; format: ADME, organism-based; conditions: in vivo
[14] = AUC (0 to t) in BALB/c mouse assessed as (E)-3-(3-(11,2,4)triazolo(1,5-alpyridin-6-y1)-5-((4-methylbenzy1)-carbamoyl)phenyl)acrylic acid at 10 mg/kg, po measured upto 24 hrs; format: ADME, organism-based; design: dose 10 mg/kg, time < 24 hrs, route po; conditions: in vivo
[15] = AUC (0 to t) in BALB/c mouse at 10 mg/kg, po measured upto 24 hrs; format: ADME, organism-based; design: time < 24 hrs, dose 10 mg/kg, route po; conditions: in vivo
[16] = AUC (0 to infinity) in BALB/c mouse assessed as (E)-3-(3-(11,2,4)triazolo(1,5-alpyridin-6-y1)-5-((4-methylbenzy1)-carbamoyl)phenyl)acrylic acid at 10 mg/kg, po measured upto 24 hrs; format: ADME, organism-based; design: time < 24 hrs, dose 10 mg/kg, route po; conditions: in vivo
[17] = tested on: CWR22R; experiment: Antitumor activity against human 22Rv1 cells xenografted in NSG mouse tumor model assessed as reduction in tumor volume at 50 mg/kg, ip treated for 26 days relative to control; format: functional; conditions: 22Rv1, 624 h, time 26 day
[18] = Prodrug conversion in mouse liver microsomes assessed as formation of (E)-3-(3-(11,2,4)triazolo(1,5-alpyridin-6-y1)-5-((4-methylbenzy1)-carbamoyl)phenyl)acrylic acid over 60 mins; format: ADME, Microsome; conditions: 1 h
[19] = Cmax in BALB/c mouse assessed as (E)-3-(3-(11,2,4)triazolo(1,5-alpyridin-6-y1)-5-((4-methylbenzy1)-carbamoyl)phenyl)acrylic acid at 10 mg/kg, po measured upto 24 hrs; format: ADME, organism-based; design: dose 10 mg/kg, time < 24 hrs, route po; conditions: in vivo
[20] = Metabolic stability in human liver microsomes assessed as compound degradation by LC-MS/MS analysis; format: ADME, Microsome; conditions: read-out: Drug degradation
[21] = Metabolic stability in mouse liver microsomes assessed as compound degradation by LC-MS/MS analysis; format: ADME, Microsome; conditions: read-out: Drug degradation
[22] = molecular target: T2, Aldo-keto reductase family 1 member C2 (Homo sapiens, UniProt P52895); experiment: Inhibition of recombinant AKR1C2 (unknown origin) dehydrogenase activity by measuring NADH formation by spectrophotometry
T2 sequence (P52895 whole entry): T1 sequence (Q04828 whole entry) with T38V, R47H, L54V, C87S, V151M, R170H, Q172L

[23] = molecular target: T3, Aldo-keto reductase family 1 member C3 (Homo sapiens, UniProt P42330); experiment: Inhibition of AKR1C3 (unknown origin)
T3 sequence (P42330 whole entry): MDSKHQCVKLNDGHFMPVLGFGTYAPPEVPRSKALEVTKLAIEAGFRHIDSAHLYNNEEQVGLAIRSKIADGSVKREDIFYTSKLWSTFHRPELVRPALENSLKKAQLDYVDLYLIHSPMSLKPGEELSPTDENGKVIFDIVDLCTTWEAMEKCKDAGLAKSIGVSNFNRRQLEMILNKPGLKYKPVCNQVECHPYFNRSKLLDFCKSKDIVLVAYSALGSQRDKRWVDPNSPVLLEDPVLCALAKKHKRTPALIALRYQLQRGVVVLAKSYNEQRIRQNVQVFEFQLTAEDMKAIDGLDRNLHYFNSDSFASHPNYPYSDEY

[24] = molecular target: T3, Aldo-keto reductase family 1 member C3; experiment: Inhibition of recombinant AKR1C3 (unknown origin) dehydrogenase activity by measuring NADH formation by spectrophotometry
[25] = Apparent volume of distribution during terminal phase in BALB/c mouse at 10 mg/kg, po measured upto 24 hrs; format: ADME, organism-based; conditions: in vivo
[26] = AUC (0 to infinity) in BALB/c mouse at 10 mg/kg, po measured upto 24 hrs; format: ADME, organism-based; design: time < 24 hrs, dose 10 mg/kg, route po; conditions: in vivo
[27] = molecular target: T4, Aldo-keto reductase family 1 member C1 (Homo sapiens) (UniProt Q04828); experiment: Inhibition of recombinant AKR1C1 (unknown origin) dehydrogenase activity at 100 uM by measuring NADH formation by spectrophotometry relative to control
T4 sequence (whole entry): T1 sequence (Q04828 whole entry)

[28] = Extrapolated AUC in BALB/c mouse at 10 mg/kg, po measured upto 24 hrs; format: ADME, organism-based; conditions: in vivo
[29] = Half life in BALB/c mouse at 10 mg/kg, po measured upto 24 hrs; format: ADME, organism-based; conditions: in vivo
[30] = Apparent oral clearance in BALB/c mouse at 10 mg/kg, po measured upto 24 hrs; format: ADME, organism-based; conditions: in vivo

Structure (SMILES): Cc1ccc(CNC(=O)c2cc(/C=C/C(=O)O)cc(-c3ccc4c(c3)OCO4)c2)cc1
IC50 [2]: > 100 µM

Structure (SMILES): Cc1ccc(CNC(=O)c2cc(/C=C/C(=O)O)cc(-c3ccccc3F)c2)cc1
Ratio IC50 [1]: > 1430
IC50 [22]: > 100 µM
IC50 [2]: > 100 µM

Structure (SMILES): Cc1ccc(CNC(=O)c2cc(/C=C/C(=O)O)cc(-c3cccc(F)c3)c2)cc1
Ratio IC50 [1]: 960
IC50 [2]: > 100 µM

Structure (SMILES): CN(CCC(=O)O)C(=O)c1ccc2c(c1)CC[C@@H]1[C@@H]2CC[C@]2(C)C(c3cncc(F)c3)=CC[C@@H]12
IC50 [23]: 0.0018 µM

Structure (SMILES): Cc1ccc(CNC(=O)c2cc(/C=C/C(=O)O)cc(-c3ccc(Cl)cc3)c2)cc1
Ratio IC50 [1]: 333
IC50 [2]: > 100 µM

Structure (SMILES): Cc1ccc(CNC(=O)c2cc(/C=C/C(=O)O)cc(-c3ccc4cccnc4c3)c2)cc1
Ratio IC50 [1]: 109

Structure (SMILES): Cc1ccc(CNC(=O)c2cc(/C=C/C(=O)O)cc(-c3ccc(C)cc3)c2)cc1
Ratio IC50 [1]: 160

Structure (SMILES): CC[C@@H](NC(=O)c1cc(/C=C/C(=O)O)cc(-c2ccc(C(C)C)cc2)c1)c1ccccc1
Ratio IC50 [1]: 51

Structure (SMILES): Cc1ccc(CNC(=O)c2cc(Br)cc(/C=C/C(=O)O)c2)cc1
Ratio IC50 [1]: > 333
IC50 [22]: > 100 µM
IC50 [2]: > 100 µM

Structure (SMILES): CC(C)=CCOc1cc(/C=C/C(=O)O)cc(C(=O)NCc2ccc(C)cc2)c1
Ratio IC50 [1]: 187

Structure (SMILES): Cc1ccc(CNC(=O)c2cc(/C=C/C(=O)O)cc(-c3ccc4ccccc4c3)c2)cc1
Ratio IC50 [1]: 140

Structure (SMILES): Cc1ccc(CNC(=O)c2cc(/C=C/C(=O)O)cc(-c3ccc4ncnn4c3)c2)cc1
Stability [3]: Stable
Stability [5]: Stable
Vz/F [25]: 405 L/kg
Ratio IC50 [1]: 1220
AUC [26]: 515.1 ng·h/mL
inhibition [27]: 8%
Tmax [6]: 6 min
%AUCextra [28]: 28.8%
Cmax [11]: 174.8 ng/mL
t1/2 [29]: 864 min
AUCt [15]: 367.6 ng·h/mL
IC50 [2]: > 100 µM
CL/F [30]: 323 mL/min/kg

Further lines, with some results ahead:

Ratio IC50 [1]: 51
Structure (SMILES): Cc1ccc(CNC(=O)c2cc(/C=C/C(=O)O)cc(-c3ccc(Oc4ccccc4)cc3)c2)cc1

Stability [3]: Stable
Drug metabolism [4]: Metabolite_Detected
Stability [5]: Stable
Tmax [6]: 19 min
Drug metabolism [7]: Metabolite_Detected
Stability [8]: Unstable
Tmax [9]: 12 min
Cmax [11]: 92.796 ng/mL
t1/2 [13]: 534 min
AUCt [14]: 6382.8 ng·h/mL
AUCt [15]: 36.416 ng·h/mL
AUC [16]: 6550.1 ng·h/mL
Drug metabolism [18]: Metabolite_Detected
Cmax [19]: 11599.4 ng/mL
metabolised [20]: 25%
metabolised [21]: 25%
Structure (SMILES): COC(=O)/C=C/c1cc(C(=O)NCc2ccc(C)cc2)cc(-c2ccc3ncnn3c2)c1
Activity [10]: Non-Toxic
inhibition in vivo at 25 mg/kg [12]: 30%
inhibition in vivo at 50 mg/kg [17]: 45%

Ratio IC50 [1]: 177
Structure (SMILES): Cc1ccc(CNC(=O)c2cc(/C=C/C(=O)O)cc(CC(C)c3ccccc3)c2)cc1 (centres undefined)

Ratio IC50 [1]: 200
IC50 [2]: > 100 µM
Structure (SMILES): Cc1ccc(CNC(=O)c2cc(/C=C/C(=O)O)cc(-c3ccc4c(c3)OCCO4)c2)cc1

Ratio IC50 [1]: 74
Structure (SMILES): Cc1ccc(CNC(=O)c2cc(C#CC3CC3)cc(/C=C/C(=O)O)c2)cc1

Ratio IC50 [1]: 61
Structure (SMILES): Cc1ccc(CNC(=O)c2cc(C#Cc3ccccc3)cc(/C=C/C(=O)O)c2)cc1

Ratio IC50 [1]: 200
Structure (SMILES): C/C=C\Cc1cc(/C=C/C(=O)O)cc(C(=O)NCc2ccc(C)cc2)c1

Ratio IC50 [1]: 354
IC50 [2]: > 100 µM
Structure (SMILES): C/C=C/Cc1cc(/C=C/C(=O)O)cc(C(=O)NCc2ccc(C)cc2)c1

Ratio IC50 [1]: 16
Structure (SMILES): Cc1ccc(CNC(=O)c2cc(/C=C/C(=O)O)cc(-c3ccc(CN4CCOCC4)c(F)c3)c2)cc1

Ratio IC50 [1]: 133
Structure (SMILES): Cc1ccc(CNC(=O)c2cc(/C=C/C(=O)O)cc(-c3ccc4nccnc4c3)c2)cc1

Ratio IC50 [1]: > 2500
IC50 [22]: > 100 µM
IC50 [2]: > 100 µM
Structure (SMILES): Cc1ccc(CNC(=O)c2cc(/C=C/C(=O)O)cc(-c3ccccc3)c2)cc1

Ratio IC50 [1]: 221
Structure (SMILES): Cc1ccc(CNC(=O)c2cc(/C=C/C(=O)O)cc(-c3ccc(-n4c5ccccc5c5ccccc54)cc3)c2)cc1

IC50 [24]: 1.4 µM
Structure (SMILES): Cc1ccc(CNC(=O)c2cc(/C=C/C#N)cc(-c3ccc(Oc4ccccc4)cc3)c2)cc1

Ratio IC50 [1]: 580
Structure (SMILES): Cc1ccc(CNC(=O)c2cc(/C=C/C(=O)O)cc(-c3ccc(-c4ccccc4)cc3)c2)cc1

Ratio IC50 [1]: 600
IC50 [2]: > 100 µM
Structure (SMILES): Cc1ccc(CNC(=O)c2cc(/C=C/C(=O)O)cc(-c3ccc(F)cc3)c2)cc1

IC50 [24]: 2.7 µM
Structure (SMILES): CC(C)=CCc1cc(/C=C/C#N)cc(C(=O)NCc2ccc(C)cc2)c1
